The record followed here is US20250214979A1, “COMPOUNDS FOR TREATING PSYCHOSTIMULANT MISUSE” (University of Florida Research Foundation, Incorporated, priority 2022, published 2025).

Where two headings read alike, the source gives them in different places.

One experiment has as its target T1, sigma 2 (h) (Homo sapiens, UniProt Q5BJF2).
T1 construct: endogenous; endogenous in cells; host or cells: Jurkat cells
In words: sigma 2 (h) agonist radioligand binding assay ([3H]DTG). The note with it: Sigma 2 Receptor, 1.00E−06 M. The protocol:
(§1) 12 compounds in binding assays (either sigma 1 or sigma 2 receptors) at 1.0×10^−6 M. Compound binding was calculated as a % inhibition of the binding of a ligand specific for each target.
(§2) The results are expressed as a percent of control specific binding: [(measured specific binding)/(control specific binding)]*100 and as a percent inhibition of control specific binding: 100−{[(measured specific binding)/(control specific binding)]*100}, obtained in the presence of the test compounds.
(§3) The IC50 values (concentration causing a half-maximal inhibition of control specific binding) and Hill coefficients (nH) were determined by non-linear regression analysis of the competition curves generated with mean replicate values using Hill equation curve fitting: Y={D+[(A−D)/(1+(C/C50)^nH)]} (where Y=specific binding, A=left asymptote of the curve, D=right asymptote of the curve, C=compound concentration, C50=IC50, and nH=slope factor). This analysis was performed using software developed at Cerep (Hill software) and validated by comparison with data generated by the commercial software SigmaPlot® 4.0 for Windows® (© 1997 by SPSS Inc.). The inhibition constants (Ki) were calculated using the Cheng Prusoff equation: Ki=(IC50)/(1+L/KD) (where L=concentration of ligand in the assay, and KD=affinity of the ligand for the receptor).

A further experiment addresses T2, dopamine transporter (h) (Homo sapiens, UniProt Q01959).
T2 construct: expressed in transfected cells; host or cells: CHO cells
In words: dopamine transporter (h) antagonist radioligand binding assay ([3H]BTCP). As to conditions: 1.00E−06 M. As for the experimental part:
[The source words this procedure for another target and reports this target under the same test.] as §1, §2, §3

For a further experiment, the target named is T3, sigma 1 (h) (Homo sapiens, UniProt Q99720).
T3 construct: endogenous; endogenous in cells; host or cells: Jurkat cells
In words: sigma 1 (h) agonist radioligand binding assay ([3H](+)pentazocine). The note with it: Sigma 1 Receptor, 1.00E−06 M. The protocol:
as §1, §2, §3

Setting [1] is: 1st, read-out: % Inhibition of Control Specific Binding, 1st.
The mark [2] stands for this setting: 2nd, read-out: % Inhibition of Control Specific Binding, 2nd.
Setting [3] is: read-out: % Inhibition of Control Specific Binding, 3rd.

T2 sequence (Q01959 whole entry): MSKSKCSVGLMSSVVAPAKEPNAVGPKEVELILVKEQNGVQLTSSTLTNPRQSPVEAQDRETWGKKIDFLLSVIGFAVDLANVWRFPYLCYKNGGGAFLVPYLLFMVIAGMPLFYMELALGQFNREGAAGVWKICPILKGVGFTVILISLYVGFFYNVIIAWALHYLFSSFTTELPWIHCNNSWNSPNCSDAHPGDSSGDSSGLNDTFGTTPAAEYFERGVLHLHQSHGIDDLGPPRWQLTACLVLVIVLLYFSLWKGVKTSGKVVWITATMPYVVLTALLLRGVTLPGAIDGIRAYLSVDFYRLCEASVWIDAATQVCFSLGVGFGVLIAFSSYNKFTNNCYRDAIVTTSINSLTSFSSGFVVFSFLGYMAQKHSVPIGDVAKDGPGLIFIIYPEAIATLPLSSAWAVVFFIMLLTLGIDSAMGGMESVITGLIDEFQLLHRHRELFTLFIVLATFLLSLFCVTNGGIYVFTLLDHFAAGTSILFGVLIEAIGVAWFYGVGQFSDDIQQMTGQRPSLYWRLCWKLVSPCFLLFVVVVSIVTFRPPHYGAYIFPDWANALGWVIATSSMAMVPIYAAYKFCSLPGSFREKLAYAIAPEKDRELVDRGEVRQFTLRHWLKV
T3 sequence (Q99720 whole entry): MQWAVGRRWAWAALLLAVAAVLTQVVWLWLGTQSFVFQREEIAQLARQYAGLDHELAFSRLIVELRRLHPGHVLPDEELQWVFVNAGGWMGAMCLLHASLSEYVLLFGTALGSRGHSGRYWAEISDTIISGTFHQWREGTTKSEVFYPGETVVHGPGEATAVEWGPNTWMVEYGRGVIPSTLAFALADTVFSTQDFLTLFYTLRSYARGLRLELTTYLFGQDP
T1 sequence (Q5BJF2 whole entry): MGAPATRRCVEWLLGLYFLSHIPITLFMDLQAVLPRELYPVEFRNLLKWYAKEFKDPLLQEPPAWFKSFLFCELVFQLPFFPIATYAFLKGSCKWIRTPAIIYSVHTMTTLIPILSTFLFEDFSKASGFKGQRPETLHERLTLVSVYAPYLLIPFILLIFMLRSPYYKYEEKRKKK

In the case of `O=C1CSCc2ccccc2N1CCCCN1CCC2(CC1)OCc1ccccc12` [STG187], the inhibition (commonly the change of the read-out against control, counted positive when it falls) at 1 µM on sigma 2 (h) (setting [1]) came out at 96.5%; on sigma 2 (h) (setting [2]), 108%; on sigma 2 (h) (setting [3]), 102%; at dopamine transporter (h) (setting [1]), 12.9%; on dopamine transporter (h) (setting [2]), 13.1%; at dopamine transporter (h) (setting [3]), 13%. Besides, the values for the inhibition at 1 µM on sigma 1 (h) (setting [1]), on sigma 1 (h) (setting [2]) and at sigma 1 (h) (setting [3]) were 93.6%, 98.9% and 96.3%, respectively.
For `O=C1CSCc2ccccc2N1CCCCN1CCN(c2cccc(Cl)c2)CC1` [STG191], the inhibition at 1 µM on sigma 2 (h) (setting [1]) came out at 86.2%; on sigma 2 (h) (setting [2]), 102%; at sigma 2 (h) (setting [3]) it was 94.4%; on dopamine transporter (h) (setting [1]) it was 21.8%; on dopamine transporter (h) (setting [2]) it was 27.6%; on dopamine transporter (h) (setting [3]), 24.7%. Also, the results for the inhibition at 1 µM at sigma 1 (h) (setting [1]), at sigma 1 (h) (setting [2]) and at sigma 1 (h) (setting [3]) were 98.6%, 98.5% and 98.6%, respectively.
As for `O=C1COCc2ccccc2N1CCCCN1CCN(c2cccc(Cl)c2)CC1` [SMB108, 1-(4-(4-(3-Chlorophenyl)piperazin-1-yl)butyl)-1,5-dihydrobenzo[e][1,4]oxazepin-2(3H)-one], the inhibition at 1 µM came to 95% on sigma 2 (h) (setting [1]); 99.8% at sigma 2 (h) (setting [2]); 97.4% on sigma 2 (h) (setting [3]); 28.3% at dopamine transporter (h) (setting [1]); 25.9% on dopamine transporter (h) (setting [2]); 27.1% on dopamine transporter (h) (setting [3]). Besides, the inhibition at 1 µM on sigma 1 (h) (setting [1]) was 93.8%; at sigma 1 (h) (setting [2]), 95.4%; on sigma 1 (h) (setting [3]), 94.6%.
Consider `O=C1CCCc2ccccc2N1CCCCN1CCC2(CC1)OCc1ccccc12` [STG136, 1-(4-(3H-spiro[isobenzofuran-1,4′-piperidin]-1′-yl)butyl)-1,3,4,5-tetrahydro-2H-benzo[b]azepin-2-one], for which the inhibition at 1 µM on sigma 2 (h) (setting [1]) stood at 90.3%; at sigma 2 (h) (setting [2]) it was 100%; on sigma 2 (h) (setting [3]), 95.3%; at dopamine transporter (h) (setting [1]) it was 7.9%; on dopamine transporter (h) (setting [2]) it was 11.4%; at dopamine transporter (h) (setting [3]) it was 9.7%. Further, the inhibition at 1 µM at sigma 1 (h) (setting [1]) came out at 98.8%; on sigma 1 (h) (setting [2]) it was 98.4%; at sigma 1 (h) (setting [3]), 98.6%.
As for `O=C1CCCc2ccccc2N1CCCCN1CCN(c2ccccc2Cl)CC1` [STG158], the inhibition at 1 µM at sigma 2 (h) (setting [1]) is 93.2%; on sigma 2 (h) (setting [2]) it was 100%; on sigma 2 (h) (setting [3]), 96.7%; at dopamine transporter (h) (setting [1]) it was -5.6%; at dopamine transporter (h) (setting [2]), -2.8%; at dopamine transporter (h) (setting [3]), -4.2%. In addition, the values for the inhibition at 1 µM at sigma 1 (h) (setting [1]), at sigma 1 (h) (setting [2]) and at sigma 1 (h) (setting [3]) were 95.7%, 93.8% and 94.7%, respectively.
For the compound `Cn1c(=O)n(CCCCN2CCC3(CC2)OCc2ccccc23)c2ccccc21` [CM699, reference compound], the inhibition at 1 µM at sigma 2 (h) (setting [1]) was 88%; at sigma 2 (h) (setting [2]), 95.9%; at sigma 2 (h) (setting [3]), 92%; on dopamine transporter (h) (setting [1]), 18.6%; on dopamine transporter (h) (setting [2]), 23.2%; at dopamine transporter (h) (setting [3]), 20.9%. Also, the inhibition at 1 µM on sigma 1 (h) (setting [1]) was 95.6%; at sigma 1 (h) (setting [2]) it was 94%; at sigma 1 (h) (setting [3]), 94.8%.
Take `O=C1COCc2ccccc2N1CCCCN1CCN(c2ccc(Cl)cc2)CC1` [STG189]: the inhibition at 1 µM stood at 82.2% at sigma 2 (h) (setting [1]); 78.2% on sigma 2 (h) (setting [2]); 80.2% at sigma 2 (h) (setting [3]); 8.6% on dopamine transporter (h) (setting [1]); 5.1% on dopamine transporter (h) (setting [2]); 6.8% on dopamine transporter (h) (setting [3]). In addition, the inhibition at 1 µM came out at 92.8% at sigma 1 (h) (setting [1]), 93.6% on sigma 1 (h) (setting [2]) and 93.2% on sigma 1 (h) (setting [3]).
`O=C1CCCc2ccccc2N1CCCCN1CCN(c2cccc(Cl)c2)CC1` [SMB107, 1-(4-(4-(3-Chlorophenyl)piperazin-1-yl)butyl)-1,3,4,5-tetrahydro-2H-benzo[b]azepin-2-one]: the inhibition at 1 µM on sigma 2 (h) (setting [1]) is 104%; at sigma 2 (h) (setting [2]) it was 98.7%; at sigma 2 (h) (setting [3]), 101%; on dopamine transporter (h) (setting [1]) it was 24.6%; at dopamine transporter (h) (setting [2]), 24.4%; on dopamine transporter (h) (setting [3]) it was 24.5%. For the same compound, the inhibition at 1 µM stood at 96.7% on sigma 1 (h) (setting [1]), 97.6% on sigma 1 (h) (setting [2]) and 97.1% at sigma 1 (h) (setting [3]).
With `O=C1CSCc2ccccc2N1CCCCN1CCN(c2ccccc2Cl)CC1` [STG192], the inhibition at 1 µM at sigma 2 (h) (setting [1]) worked out at 56.6%; at sigma 2 (h) (setting [2]) it was 43.4%; at sigma 2 (h) (setting [3]), 50%; on dopamine transporter (h) (setting [1]), 12.6%; at dopamine transporter (h) (setting [2]) it was 4.3%; at dopamine transporter (h) (setting [3]) it was 8.5%. Further, the inhibition at 1 µM on sigma 1 (h) (setting [1]) stood at 53.5%; at sigma 1 (h) (setting [2]), 53.2%; on sigma 1 (h) (setting [3]), 53.3%.
Regarding `O=C1CSCc2ccccc2N1CCCCN1CCN(c2ccc(Cl)cc2)CC1` [STG190], the inhibition at 1 µM on sigma 2 (h) (setting [1]) worked out at 96.4%; on sigma 2 (h) (setting [2]), 95.5%; at sigma 2 (h) (setting [3]), 95.9%; on dopamine transporter (h) (setting [1]), 9.2%; at dopamine transporter (h) (setting [2]), 14.8%; on dopamine transporter (h) (setting [3]) it was 12%. Moreover, the inhibition at 1 µM at sigma 1 (h) (setting [1]), on sigma 1 (h) (setting [2]) and on sigma 1 (h) (setting [3]) was 101% in each case.
On to `O=C1COCc2ccccc2N1CCCCN1CCC2(CC1)OCc1ccccc12` [STG135, 1-(4-(3H-spiro[isobenzofuran-1,4′-piperidin]-1′-yl)butyl)-1,5-dihydrobenzo[e][1,4]oxazepin-2(3H)-one], for which the inhibition at 1 µM on sigma 2 (h) (setting [1]) is 106%; on sigma 2 (h) (setting [2]), 84.4%; at sigma 2 (h) (setting [3]), 95.2%; on dopamine transporter (h) (setting [1]) it was 6%; on dopamine transporter (h) (setting [2]) it was 3.5%; on dopamine transporter (h) (setting [3]), 4.8%. In addition, the inhibition at 1 µM at sigma 1 (h) (setting [1]) came out at 97.9%; on sigma 1 (h) (setting [2]), 94.5%; on sigma 1 (h) (setting [3]), 96.2%.
For `O=C1CCCc2ccccc2N1CCCCN1CCN(c2ccc(Cl)cc2)CC1` [STG188], the inhibition at 1 µM on sigma 2 (h) (setting [1]) stood at 82.9%; on sigma 2 (h) (setting [2]) it was 85.9%; at sigma 2 (h) (setting [3]) it was 84.4%; on dopamine transporter (h) (setting [1]) it was 26.5%; at dopamine transporter (h) (setting [2]), 23.2%; on dopamine transporter (h) (setting [3]), 24.8%. Moreover, the inhibition at 1 µM came out at 98.8% on sigma 1 (h) (setting [1]), 99.2% on sigma 1 (h) (setting [2]) and 99% on sigma 1 (h) (setting [3]).
